Measurements from patent US20250049789A1, “METHODS OF TREATING ALOPECIA ARAETA” (AbbVie Inc., priority 2023, published 2025).

Tested on: alopecia areata
Test: Efficacy and safety of upadacitinib in AD patients with concomitant alopecia areata (SALT, AA-IGA)
Type: in vivo, human
Text: According to data reported in the patient clinical report forms by each investigator, all AD patients who were concomitantly suffering from alopecia areata at the baseline visit were identified. Medical records included demographic characteristics such as age, sex, occupation, smoking habits (smoker, former smoker, or non-smoker), AD history and severity, alopecia areata history and severity, prior treatments, atopic and non-atopic comorbidities, serum IgE levels, and concomitant therapies.
Patients were evaluated at baseline, and follow-up visits were scheduled after 4 weeks from baseline, and every 12 weeks thereafter. At baseline and at each follow-up visit, AD severity was assessed by Eczema Area and Severity Index (EASI) together with other tools. To evaluate severity and treatment response of alopecia areata, Severity of Alopecia Tool (SALT) and Alopecia Areata-Investigator Global Assessment (AA-IGA) were performed, as commonly used in daily practice. […] The SALT change throughout the observation period was recorded as the difference between the baseline SALT score and the SALT score value calculated at each follow-up visit (A SALT).
Qualitative and quantitative variables were described as relative frequencies (%), mean and standard deviation (or medians and interquartile ranges [IR], as appropriate), respectively. […] Data are reported and analysed “as observed”. […]

With CC[C@@H]1CN(C(=O)NCC(F)(F)F)C[C@@H]1c1cnc2cnc3[nH]ccc3n12 [upadacitinib, (3S,4R)-3-ethyl-4-(3H-imidazo[1,2-a]pyrrolo[2,3-e]pyrazin-8-yl)-N-(2,2,2-trifluoroethyl)pyrrolidine-1-carboxamide] the “predicted SALT reduction for each 1-unit increase in the age of alopecia areata onset” value (multivariable regression, independent of baseline SALT and sex) was 2.1 point and the “patients with clinically meaningful hair regrowth (achievement of at least SALT 50 response)” value (upadacitinib 30 mg once daily, after 4 weeks of treatment) was “about 16%”.
